For data set [1], the system named is Echinochloa crus-galli (ECHCG). Kind of data set: Example B6: post application on weeds, ECHCG. It counts as in vivo. Conditions: 312 h, after 13 days, 100 = total damage, 0 = no damage, read-out: ECHCG damage to plant. The procedure: (§1) Lolium perenne (LOLPE), Alopecurus myosuroides (ALOMY), Echinochloa crus-galli (ECHCG) and Avena fatua (AVEFA). Activity Against Weeds Seeds of a variety of test species were sown in standard soil in pots. After cultivation for 8 days under controlled conditions in a glasshouse (at 24/16° C., day/night; 14 hours light; 65% humidity), the plants were sprayed with an aqueous spray solution derived from the formulation of the technical active ingredient in acetone/water (50:50) solution containing 0.5% Tween 20 (polyoxyethelyene sorbitan monolaurate, CAS RN 9005-64-5). The test plants were then grown in a glasshouse under controlled conditions in a glasshouse (at 24/16° C., day/night; 14 hours light; 65% humidity) and watered twice daily. After 13 days, the test was evaluated (100=total damage to plant; 0=no damage to plant).

Data set [2] relates to Echinochloa crus-galli (ECHCG). Briefly: Example B7: pre application on weeds, ECHCG. It counts as in vivo. Particulars: 312 h, pre-emergence spray one day after sowing, evaluated after 13 days, read-out: Pre application on weeds, ECHCG (100=total damage to plant; 0=no damage to plant). The procedure:
as §1, with “one day” for “8 days”

The test system of data set [3] is Alopecurus myosuroides (ALOMY). Kind of data set: Example B7: pre application on weeds, ALOMY. It is filed as in vivo. Conditions: 312 h, pre-emergence spray one day after sowing, evaluated after 13 days, read-out: Pre application on weeds, ALOMY (100=total damage to plant; 0=no damage to plant). How it is done: as §1, with “one day” for “8 days”
Data set [4] has as its system Avena fatua (AVEFA). Kind of data set: Example B6: post application on weeds, AVEFA. It is filed as in vivo. Particulars: 312 h, after 13 days, 100 = total damage, 0 = no damage, read-out: AVEFA damage to plant. How it is done: as §1
Data set [5] has as its system Avena fatua (AVEFA). Kind of data set: Example B7: pre application on weeds, AVEFA. It is filed as in vivo. Conditions: 312 h, pre-emergence spray one day after sowing, evaluated after 13 days, read-out: Pre application on weeds, AVEFA (100=total damage to plant; 0=no damage to plant). The procedure:
as §1, with “one day” for “8 days”

Data set [6] relates to Alopecurus myosuroides (ALOMY). Briefly: Example B6: post application on weeds, ALOMY. It is filed as in vivo. Particulars: 312 h, after 13 days, 100 = total damage, 0 = no damage, read-out: ALOMY damage to plant. The procedure:
as §1

A further data set deals with Winter wheat (TRZAW). Kind of data set: Example B8: post application on wheat, with and without safener cloquintocet-mexyl. It is filed as in vivo. Particulars: after 13 days, 100 = total damage, 0 = no damage. How it is done: Application with Safener (Cloquintocet-Mexyl) Winter wheat seeds with a seed treatment of cloquintocet-mexyl applied at a rate of 0.5 g/kg seeds were sown in standard soil in pots. After cultivation for 8 days under controlled conditions in a glasshouse (at 24/16° C., day/night; 14 hours light; 65% humidity), the plants were sprayed with an aqueous spray solution derived from the formulation of the technical active ingredient in acetone/water (50:50) solution containing 0.5% Tween 20 (polyoxyethelyene sorbitan monolaurate, CAS RN 9005-64-5). The test plants were then grown in a glasshouse under controlled conditions in a glasshouse (at 24/16° C., day/night; 14 hours light; 65% humidity) and watered twice daily. After 13 days, the test was evaluated (100=total damage to plant; 0=no damage to plant).

Data set [7] has as its system Lolium perenne (LOLPE). Kind of data set: Example B6: post application on weeds, LOLPE. Particulars: 312 h, after 13 days, 100 = total damage, 0 = no damage, read-out: LOLPE damage to plant. It counts as in vivo. How it is done:
as §1

The subject of data set [8] is Lolium perenne (LOLPE). Kind of data set: Example B7: pre application on weeds, LOLPE. It is filed as in vivo. Conditions: 312 h, pre-emergence spray one day after sowing, evaluated after 13 days, read-out: Pre application on weeds, LOLPE (100=total damage to plant; 0=no damage to plant). How it is done: as §1, with “one day” for “8 days”

Each structure is given as a SMILES string.

For `CCc1cc(C)cc(CC)c1C1C(=O)N2CCN(OC)CCN2C1=O` [Compound P2.3, 8-(2,6-Diethyl-4-methyl-phenyl)-3-methoxy-tetrahydro-pyrazolo[1,2-a][1,2,5]triazepine-7,9-dione], the melting point was 240 °C (dec.). In addition, the pest or weed control at 250 g/ha in data set [1] came to 100%. Moreover, the pest or weed control at 250 g/ha in data set [2] is 100%. Also, in data set [3], the pest or weed control at 250 g/ha is 100%. Further, the pest or weed control at 250 g/ha in the data set with Avena fatua (AVEFA) [4] stood at 100%. Also, in the data set with Avena fatua (AVEFA) [5], the pest or weed control at 250 g/ha amounted to 90%. In addition, the pest or weed control at 250 g/ha in [6] is 100%. Besides, the “TRZAW damage to plant” value in the data set on Winter wheat (TRZAW) (62.5 g/ha + 0.5 g/kg seeds cloquintocet-mexyl) was found to be 0. The “TRZAW damage to plant” value with Winter wheat (TRZAW) (62.5 g/ha, without safener) is reported as 60. The pest or weed control at 250 g/ha in the data set on Lolium perenne (LOLPE) [7] turned out to be 100%. In addition, in the data set with Lolium perenne (LOLPE) [8], the pest or weed control at 250 g/ha is 100%.

In turn, `CON1CCN2C(=O)C(c3cc(-c4ccc(Cl)cc4)ccc3C)C(=O)N2CC1` [Compound P2.7] had a melting point of 248 to 250 °C.

On to `CON1CCN2C(=O)C(c3cc(C)c(C)cc3C)C(=O)N2CC1` [Compound P2.19], for which the melting point was in the range of 171 to 173 °C.

Turning to `CON1CCN2C(=O)C(c3c(C)cc(-c4ccc(F)cc4)cc3C)C(=O)N2CC1` [Compound P2.21], the melting point lay in the range of 292 to 294 °C.

Regarding `CCOC(=O)Oc1c(-c2c(Cl)cc(C)cc2OC)c(=O)n2n1CCN(OC)CC2` [Compound P1.20], the melting point was in the range of 138 to 139 °C.

With `CON1CCN2C(=O)C(c3c(C)cc(-c4ccc(Cl)cc4)cc3C)C(=O)N2CC1` [Compound P2.20], the melting point was 258 to 260 °C.

`CCOC(=O)Oc1c(-c2cc(C)c(C)cc2C)c(=O)n2n1CCN(OC)CC2` [Compound P1.21] displayed a melting point of 117 to 118 °C.

For the compound `C#Cc1cc(C)c(-c2c(OC(=O)OCC)n3n(c2=O)CCN(OC)CC3)c(C)c1` [Compound P1.8], the pest or weed control at 250 g/ha was determined as 70% in [1]; 20% in [2]; 0% in data set [3]; 80% in the data set with Avena fatua (AVEFA) [4]; 20% in the data set on Avena fatua (AVEFA) [5]; 80% in [6]. Moreover, the pest or weed control at 250 g/ha with Lolium perenne (LOLPE) [7] was determined as 40%; in the data set with Lolium perenne (LOLPE) [8], 0%. In addition, the “TRZAW damage to plant” value with Winter wheat (TRZAW) (250 g/ha + 0.5 g/kg seeds cloquintocet-mexyl) came to 20; in the data set with Winter wheat (TRZAW) (250 g/ha, without safener) it was 60.

The values are drawn from patent US9282743B2, “Chemical compounds” (Syngenta Participations AG, priority 2011, dated 2016).
